Reference: patent publication US5459141A, “Compounds 31668P and 31668U, a process for their production and their use” (Hoechst Aktiengesellschaft, priority 1992, dated 1995)
“Also recorded” adds a separate entry of the source. Read-outs that look alike come from different tables or passages of the source.

Assays:
E. coli 078 = test: Minimal inhibitory concentration, broth-dilution test; assay type: cell-based; conditions: Escherichia coli
From the text: (§1) The antibacterial activity of 31668P and 31668U as Minimum Inhibitory Concentration values required to inhibit the growth of various bacteria are shown in Table 1.
(§2) Minimal inhibitory concentrations of the anitbiotics 31668P and
(§3) 31668U determined by the broth-dilution tests against selected
(§4) strains of bacteria (microgram per ml)

E. coli 1507 E = test: as above; assay type: cell-based; conditions: Escherichia coli, read-out: Minimal inhibitory concentration
From the text: as §1, §2, §3, §4

E. coli DC 0 = test: as above; assay type: cell-based; conditions: Escherichia coli, DC0
From the text: as §1, §2, §3, §4

E. coli DC 2 = test: as above; assay type: cell-based; conditions: Escherichia coli, DC2
From the text: as §1, §2, §3, §4

E. coli TEM = test: as above; assay type: cell-based; conditions: Escherichia coli, read-out: Minimal inhibitory concentration
From the text: as §1, §2, §3, §4

[1] = test system: Enterobact. cloacae 1321 E; test: as above; assay type: cell-based
From the text: as §1, §2, §3, §4

Enterobact. cloacae P 99 = test: as above; assay type: cell-based; conditions: read-out: Minimal inhibitory concentration
From the text: as §1, §2, §3, §4

Klebs. spec. 1082E (K-1) = test: as above; assay type: cell-based
From the text: as §1, §2, §3, §4

Klebs. spec. 1522 E = test: as above; assay type: cell-based; conditions: read-out: Minimal inhibitory concentration
From the text: as §1, §2, §3, §4

Pseud. aeruginosa 1592 E = test: as above; assay type: cell-based; conditions: Pseudomonas aeruginosa
From the text: as §1, §2, §3, §4

Pseud. aeruginosa 1771 M = test: as above; assay type: cell-based; conditions: Pseudomonas aeruginosa
From the text: as §1, §2, §3, §4

Pseud. aeruginosa 1771 = test: as above; assay type: cell-based; conditions: Pseudomonas aeruginosa
From the text: as §1, §2, §3, §4

[2] = test system: Pseud. aeruginosa ATCC 9027; test: as above; assay type: cell-based; conditions: Pseudomonas aeruginosa, ATCC9027
From the text: as §1, §2, §3, §4

Saim. typhimurium = test: as above; assay type: cell-based
From the text: as §1, §2, §3, §4

Staph. aureus 285 = test: as above; assay type: cell-based; conditions: Staphylococcus aureus
From the text: as §1, §2, §3, §4

Staph. aureus 503 = test: as above; assay type: cell-based; conditions: Staphylococcus aureus
From the text: as §1, §2, §3, §4

Staph. aureus SG 511 = test: as above; assay type: cell-based; conditions: Staphylococcus aureus, SG511
From the text: as §1, §2, §3, §4

Strept. faecium D = test: as above; assay type: cell-based; conditions: Enterococcus faecium
From the text: as §1, §2, §3, §4

Strept. pyogenes 308 A = test: as above; assay type: cell-based; conditions: Streptococcus pyogenes
From the text: as §1, §2, §3, §4

Strept. pyogenes 77 A = test: as above; assay type: cell-based; conditions: Streptococcus pyogenes
From the text: as §1, §2, §3, §4

[3] = test system: gram-positive and gram-negative bacteria; test: Antibacterial activity (general statement); assay type: cell-based; conditions: in words
[4] = Cytotoxic / cytostatic activity (general statement); conditions: in words

| SMILES | MIC (E. coli 078) [µg/mL] | MIC (E. coli DC 0) [µg/mL] | MIC (E. coli DC 2) [µg/mL] | MIC (E. coli TEM) [µg/mL] | MIC [1] [µg/mL] | MIC (Enterobact. cloacae P 99) [µg/mL] | MIC (Klebs. spec. 1082E (K-1)) [µg/mL] | MIC (Pseud. aeruginosa 1592 E) [µg/mL] | MIC (Pseud. aeruginosa 1771 M) [µg/mL] | MIC (Pseud. aeruginosa 1771) [µg/mL] | MIC [2] [µg/mL] | MIC (Saim. typhimurium) [µg/mL] | MIC (Staph. aureus 285) [µg/mL] | MIC (Staph. aureus 503) [µg/mL] | MIC (Staph. aureus SG 511) [µg/mL] | MIC (Strept. faecium D) [µg/mL] | MIC (Strept. pyogenes 308 A) [µg/mL] | MIC (Strept. pyogenes 77 A) [µg/mL] | antibacterial / antibiotic activity [3] | cytotoxic activity / cytostatic effect [4] | also measured |
| --- | --- | --- | --- | --- | --- | --- | --- | --- | --- | --- | --- | --- | --- | --- | --- | --- | --- | --- | --- | --- | --- |
| COc1c(C)c(O)c2c(c1O)C(CO)[N+]1=CC3CC4C(C1C2N1CCOC41)N3C (centres unmarked) [Compound 31668P] | 0.049 | 0.781 | 0.195 | 0.195 | 0.098 | 0.195 | 0.391 | 0.781 | 0.391 | 1.56 | 0.781 | 0.391 | < 0.002 | < 0.002 | < 0.002 | 0.025 | < 0.002 | < 0.002 | active against a large number of both gram-positive and gram-negative bacteria; also recorded: have an antibiotic activity | cytotoxic activity; also recorded: cytostatic effect | MIC (E. coli 1507 E; 1507E): 0.195 µg/mL; MIC (Klebs. spec. 1522 E; Klebs. spec. 1522 E): 0.391 µg/mL |
| COC1=C(C)C(=O)C2=C(C1=O)C(CO)[N+]1=CC3CC4C(C1C2N1CCOC41)N3C (centres unmarked) [Compound 31668U] | 0.195 | 6.25 | 0.781 | 1.56 | 0.195 | 1.56 | 0.781 | 6.25 | 1.56 | 12.5 | 6.25 | 3.13 | < 0.002 | < 0.002 | < 0.002 | 0.195 | < 0.002 | < 0.002 | active against a large number of both gram-positive and gram-negative bacteria; also recorded: have an antibiotic activity | cytotoxic activity; also recorded: cytostatic effect | MIC (E. coli 1507 E; E. coli 1507 E): 3.13 µg/mL; MIC (Klebs. spec. 1522 E): 1.56 µg/mL |
